# Laboratory results as given in article PMC3083979 (Pharmaceutical research, 2009).
# Where two headings read alike, the source gives them in different places.
# Experiments:
# [1] = test system: human sandwich-cultured hepatocytes (SCH); details: for Accumulation Cells / Accumulation Cells + Bile / BEI: + 2 µM GF120918, 1 µM [3H]digoxin 10 min or 5 µM fexofenadine 30 min
# [2] = test system: human OATP1B1; details: bosentan 100 µM, competitive, transfected CHO cells; ref [45]; cited from earlier work
# [3] = test system: human OATP1B3; details: bosentan 100 µM, competitive, transfected CHO cells; ref [45]; cited from earlier work
# [4] = test system: human OATP2B1; details: bosentan 100 µM, competitive, transfected CHO cells; ref [45]; cited from earlier work
# [5] = test system: rat isolated perfused livers; details: P-gp inhibitor erythromycin, ref [43]; cited from earlier work
# [6] = test system: perfused livers from Mrp2-deficient TR^− rats; test: In situ single-pass liver perfusion; assay type: in vivo, rat; details: GF120918 coadministration
smiles,measurement,setting,value
"C[C@H]1O[C@@H](O[C@H]2[C@@H](O)C[C@H](O[C@H]3[C@@H](O)C[C@H](O[C@H]4CC[C@@]5(C)[C@H](CC[C@@H]6[C@@H]5C[C@@H](O)[C@]5(C)[C@@H](C7=CC(=O)OC7)CC[C@]65O)C4)O[C@@H]3C)O[C@@H]2C)C[C@H](O)[C@@H]1O [[^3H]Digoxin, digoxin]",Accumulation Cells,[1]; Liver 1,29.9 ± 1.6 pmol/mg
same,Accumulation Cells + Bile,[1]; Liver 1,26.2 ± 0.9 pmol/mg
same,BEI,[1]; Liver 1,0%
same,Accumulation Cells,"[1]; Liver 1, listed as [^3H]digoxin",29.9 pmol/mg
same,Accumulation Cells,[1]; Liver 2,25.2 ± 1.6 pmol/mg
same,Accumulation Cells + Bile,[1]; Liver 2,23.4 ± 2.3 pmol/mg
same,BEI,[1]; Liver 2,0%
COc1ccccc1Oc1c(NS(=O)(=O)c2ccc(C(C)(C)C)cc2)nc(-c2ncccn2)nc1OCCO [bosentan],Inhibition of transport of model probes,[2],~ 40%
same,Inhibition of transport of model probes,[3],~ 40%
same,Inhibition of transport of model probes,[4],~ 40%
CC[C@H]1OC(=O)[C@H](C)[C@@H](O[C@H]2C[C@@](C)(OC)[C@@H](O)[C@H](C)O2)[C@H](C)[C@@H](O[C@@H]2O[C@H](C)C[C@H](N(C)C)[C@H]2O)[C@](C)(O)C[C@@H](C)C(=O)[C@H](C)[C@@H](O)[C@]1(C)O [erythromycin],Effect on cumulative recovery of fexofenadine in bile,[5],decreased
"COc1cc2c(cc1OC)CN(CCc1ccc(NC(=O)c3cccc4c(=O)c5cccc(OC)c5[nH]c34)cc1)CC2 [GF120918, N-(4-[2-(1,2,3,4-tetrahydro-6,7-dimethoxy-2-isoquinolinyl)ethyl]-phenyl)-9,10-dihydro-5-methoxy-9-oxo-4-acridine carboxamide]",Fexofenadine Cl’biliary as % of control,[6],27.5 % of control
same,Effect on fexofenadine BEI and in vitro biliary clearance,"[1]; 2 µM GF120918, human SCH",not affected
same,Effect on BEI and in vitro biliary clearance of [3H]digoxin,"[1]; 2 µM GF120918, human SCH, both livers",abolished completely
